The results in this text go back to PubChem BioAssay AID1552 (Sanford-Burnham Center for Chemical Genomics, 2009).

Activity calls are given as the source filed them. How the calls were made is not given here.

Ubiquitin-conjugating enzyme E2 N (Homo sapiens), sequence (P61088 whole entry, looked up): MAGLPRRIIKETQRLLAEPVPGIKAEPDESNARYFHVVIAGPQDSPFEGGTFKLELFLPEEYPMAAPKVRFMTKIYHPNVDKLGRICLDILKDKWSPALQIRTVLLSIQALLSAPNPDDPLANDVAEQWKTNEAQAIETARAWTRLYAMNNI

The assay has as its target Ubiquitin-conjugating enzyme E2 N (Homo sapiens) (UniProt P61088). The assay is described as follows: NMR detection of UBE2N ligand binding – biophysical, purified protein (AID 1552). The note with it: NMR binding to purified UBE2N.
As usually defined, the Kd is the concentration at which binding is half-saturated. `CCOc1ccc(C(=O)c2ccc(OC)c(O)c2O)cc1`: the Kd is > 4 mM (inactive).
Regarding `CN(C)C1CCS(=O)(=O)C1` (stereo unspecified), the Kd is > 4 mM (inactive).
Consider `CC(=O)Nc1ccc(NC(=O)C2CC2)cc1`, for which the Kd is > 4 mM (inactive).
In the case of `COc1ccc(/C=C2/SC(N)=NC2=O)c(OC)c1` it was > 4 mM (inactive).
In the case of `CN(C)C(=O)c1ccc(-c2n[nH]c(=O)c3ccccc23)cc1`, the Kd is > 4 mM (inactive).
For the compound `Nc1ccc2[nH]ccc2c1`, the Kd was > 4 mM (inactive).
In the case of `COc1ccc(C)cc1-n1c(-c2ccncc2)n[nH]c1=S` it was > 4 mM (inactive).
With `Cc1n[nH]c(=S)n1-c1ccc(C(=O)O)cc1` the figure was > 4 mM (inactive); with `NC(=O)Cn1cnc2ccccc21`, > 4 mM (inactive); with `Cn1nnc2cc(C(=O)NCc3ccco3)ccc21`, > 4 mM (inactive).
In the case of `Cc1ccc(=O)[nH]c1`, the Kd is > 4 mM (inactive).
In the case of `C[C@@H]1CC[C@@]2(OC1)OC1C(O)C3C4CC[C@H]5C[C@H](O[C@@H]6O[C@H](CO)[C@H](O[C@@H]7O[C@H](CO)[C@@H](O)[C@H](O[C@@H]8OC[C@@H](O)[C@H](O)[C@H]8O)[C@H]7O[C@@H]7O[C@H](CO)[C@H](O)[C@H](O[C@@H]8O[C@H](CO)[C@@H](O)[C@H](O)[C@H]8O)[C@H]7O)[C@H](O)[C@H]6O)[C@H](O)C[C@]5(C)C4CC[C@]3(C)C1[C@@H]2C` (stereo partly specified) it was > 4 mM (inactive); in that of `Nc1ccc(-c2csnn2)cc1`, > 4 mM (inactive); in that of `Cc1csc(CCc2nc(C)cs2)n1`, > 4 mM (inactive).
Regarding `Cc1cc(N)no1`, the Kd is > 4 mM (inactive).
As to `Cc1ccc(O)c(NC(=O)c2ccco2)c1`, the Kd is > 4 mM (inactive).
On to `O=C(O)c1cc(=O)[nH]c2ccccc12`, for which the Kd was > 4 mM (inactive).
With `O=C(N1CCOCC1)N1CCN(c2ccccn2)CC1`, the Kd is > 4 mM (inactive).
With `O=C1CC(=O)N(c2ccccc2F)C(=S)N1`, the Kd was > 4 mM (inactive).
As to `COc1ccc(-c2coc3cc(OC(C)=O)cc(OC(C)=O)c3c2=O)cc1`, the Kd was > 4 mM (inactive).
With `Cc1ccccc1NC(=O)c1ocnc1C`, the Kd is > 4 mM (inactive).
Consider `CC(=O)Nc1ccc(S(=O)(=O)N2CCN=C2C)cc1`, for which the Kd was > 4 mM (inactive).
In the case of `O=C(O)c1ccc(-c2cnco2)cc1`, the Kd is > 4 mM (inactive).
Take `Nc1cc(N)nc(SCc2ccccc2)n1`: the Kd is > 4 mM (inactive).
Turning to `CC(=O)c1cc(-c2nc3ccccc3n2C)n(C)c1`, the Kd was > 4 mM (inactive).
In the case of `Cc1ccc2c(c1)CC[C@H]1CC(=O)CC[C@]21C` it was > 4 mM (inactive); in that of `COc1ccc(C(=O)/C=C/c2ccccc2)cc1`, > 4 mM (inactive).
For the compound `O=C1CNC(=O)N1Cc1ccc(Br)cc1`, the Kd is > 4 mM (inactive).
Consider `CC(=O)Nc1ccc(C(=O)NC2=NCCS2)cc1`, for which the Kd was > 4 mM (inactive).
`OCc1ccc(N2CCOCC2)cc1`: the Kd was > 4 mM (inactive).
For the compound `Cc1ccc(-c2nc(-c3cccnc3)no2)c(C)c1`, the Kd was > 4 mM (inactive).
For `Nc1ncnc(NCCO)c1[N+](=O)[O-]`, the Kd was > 4 mM (inactive).
With `Cc1occc1C(=O)NCc1ccccn1` the figure was > 4 mM (inactive); with `NC(=O)c1ccc(SCC(=O)O)c([N+](=O)[O-])c1`, > 4 mM (inactive); with `COc1ccccc1Nc1nncc(=O)[nH]1`, > 4 mM (inactive).
Consider `Cc1oc2nc3c(c(=O)[nH]c(=O)n3C)n2c1C`, for which the Kd was > 4 mM (inactive).
In the case of `CCc1sc(C(=O)NC)cc1Br` it was > 4 mM (inactive).
In the case of `O=C(NCc1n[nH]c(=O)c2ccccc12)C1CC1` it was > 4 mM (inactive); in that of `O=C(Nc1ccon1)c1ccc(Br)o1`, > 4 mM (inactive); in that of `O=C(CSC1=NCCS1)N1CCc2ccccc21`, > 4 mM (inactive).
In the case of `O=C(O)c1cncc(-c2ccccc2)c1` it was > 4 mM (inactive); in that of `COc1ccc2c(c1)=C(c1sc(N)nc1O)C(=O)N=2`, > 4 mM (inactive); in that of `C[C@]12CCC3C(CC[C@H]4C[C@@H](O)CC[C@]34C)C1CCC2=O` (stereo partly specified), > 4 mM (inactive).
On to `CC(=O)N1CCc2ccccc2C1CC(=O)O` (stereo unspecified), for which the Kd is > 4 mM (inactive).
For the compound `C/C(N)=C/C(=O)N1CCCCC1`, the Kd was > 4 mM (inactive).
For `O=C(O)C1CSC(c2ccco2)N1` (stereo unspecified), the Kd is > 4 mM (inactive).
In the case of `CCC(=O)n1nc(-c2ccco2)nc1N`, the Kd is > 4 mM (inactive).
Consider `CC(C)CCCC1(C)C=Cc2c(O)c3c(c(CCC(C)C)c2O1)OC12C(CC4CC1C(C)(C)OC2(CCC(C)C(=O)O)C4O)C3=O` (stereo unspecified), for which the Kd is > 4 mM (inactive).
Consider `Cc1cc(NC(=O)c2cccc(S(C)(=O)=O)c2)no1`, for which the Kd was > 4 mM (inactive).
In the case of `O=C(CCc1ccc(O)cc1)c1c(O)cc(O)cc1O[C@@H]1O[C@H](CO)[C@@H](O)[C@H](O)[C@H]1O` it was > 4 mM (inactive); in that of `O=C(O)c1sccc1-n1cccc1`, > 4 mM (inactive); in that of `O=c1cc(-c2ccccc2)oc2c(O)c(O)ccc12`, > 4 mM (inactive).
With `CCOC(=O)c1c(C)n([O-])c2ccccc2[n+]1=O` the figure was > 4 mM (inactive); with `COC(=O)c1sc(N)nc1C`, > 4 mM (inactive).
With `Cc1cc(SCC(=O)c2ccccc2)nc(=O)[nH]1` the figure was > 4 mM (inactive); with `O=C1COc2ccccc2C(=O)N1`, > 4 mM (inactive); with `Cc1nc(NC2=NCCC(=O)N2)nc2ccccc12`, > 4 mM (inactive).
Consider `COc1cc(/C=C2\SC(=S)NC2=O)ccc1O`, for which the Kd is > 4 mM (inactive).
Turning to `CNc1nc(OC)nc(N2CCOCC2)n1`, the Kd was > 4 mM (inactive).
Regarding `Cc1[nH]c2ccccc2c1Cc1n[nH]c(=S)n1C`, the Kd was > 4 mM (inactive).
For `C[n+]1ccn(C/C(N)=N/O)c1`, the Kd is > 4 mM (inactive).
For `NC(=O)C1CCN(C(=O)c2ccccc2)CC1`, the Kd was > 4 mM (inactive).
In the case of `CSc1nc(C)c(Oc2ccccc2)c(=O)n1C` it was > 4 mM (inactive); in that of `COC[C@]12CN(C=O)C3[C@@H]4[C@H](OC)C1[C@]3(C1CC3(O)C(OC)C(O)C4(OC(C)=O)C1C3OC(=O)c1ccccc1)[C@@H](OC)C[C@H]2O` (stereo partly specified), > 4 mM (inactive).
`CC1(C)CC2(C)N(N)C(=O)CN2C(=S)N1` (stereo unspecified): the Kd was > 4 mM (inactive).
For the compound `O=C1CSC(=Nc2cccc(C(=O)O)c2)N1`, the Kd is > 4 mM (inactive).
`O=C1NC(=O)C(c2ccccc2)C(=O)N1`: the Kd was > 4 mM (inactive).
Turning to `COC(=O)C(O)[C@@H]1C2(C)C(=O)[C@@H](CC3=C4CC(=O)O[C@@H](c5ccoc5)[C@]4(C)CCC32)[C@H](OC(C)=O)C1(C)C` (stereo partly specified), the Kd was > 4 mM (inactive).
Consider `O=C(O)C1CSC(c2cccnc2)N1` (stereo unspecified), for which the Kd was > 4 mM (inactive).
`O=C1Nc2ccccc2C1(O)Cc1ccncc1` (stereo unspecified): the Kd is > 4 mM (inactive).
With `OC12C=CC(CC1)CC2`, the Kd is > 4 mM (inactive).
